Test [1] addresses T1, CHO cells expressing Siglec-6 mutants (C46A, C172A, R to A mutants, F93A, L95A, G175M) (Homo sapiens, UniProt O43699, C172A).
T1 construct: These new CHO cell lines are the full-length versions of the Siglecs; expressed in transfected cells
In words: Cell assay (liposome/EV binding, flow cytometry).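 For liposome binding, fluorescence signal (replicates): AF647 fluorescence intensity from 0.1 mol% AF647–PEG45–DSPE in liposomes.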 It counts as cell-based. To be noted: sheet Figure S26a, 3% GM3-DAG liposomes, C172A. The protocol:
(§1) Mutations were introduced into each Siglec via gene overlap extension PCR mutagenesis (primers were ordered through IDT). Mutagenesis primers can be found in Supplementary Tables 2 and 3 for the critical arginine mutants of the entire Siglec family and the additional Siglec-6 mutants respectively.
(§2) 200,000 cells/well were plated into a 96-well U-bottom microplate and centrifuged at 300 × g for 5 min. The cells were then resuspended in 50 µL of 50 µM liposome/50 µg/mL (protein concentration) of EV solution in DMEM F12 5% FBS and incubated at 37 °C for 30 min. Excess liposomes were then removed via centrifuged at 300 × g for 5 min followed by washing the cells with FACS solution. The cells were then resuspended in (1:250 V/V) anti-Siglec-flow buffer (1% V/V FBS, 500 µM, EDTA Hank’s Balanced Salt Solution pH 7.4), solution and left to rest on ice for 30 min. The cells were then centrifuged again at 300 × g for 5 min and the cells were resuspended in FACS buffer solution and were then ready for analysis by flow cytometry. Information regarding antibody clone, catalog number supplier, label isotype, and dilution can be found in Supplementary Table 6. The Siglec-positive cells were gated on for liposome-binding analysis (Supplementary Fig. 1b).
(§3) Flow cytometry measurements were collected on a 5-laser Fortessa X-20 (BD Bioscience). All the resulting data were analyzed using FlowJo (10.5.3) software (BD Biosciences).

Test [2] has as its target T2, CHO cells expressing Siglec-6 mutants (C46A, C172A, R to A mutants, F93A, L95A, G175M) (Homo sapiens, UniProt O43699, C46A).
T2 construct: These new CHO cell lines are the full-length versions of the Siglecs; expressed in transfected cells
In words: Cell assay (liposome/EV binding, flow cytometry).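 For liposome binding, fluorescence signal (replicates): AF647 fluorescence intensity from 0.1 mol% AF647–PEG45–DSPE in liposomes.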 It counts as cell-based. To be noted: sheet Figure S26a, 3% GM3-DAG liposomes, C46A. The protocol:
as §1, §2, §3
For orientation: Flow cytometry measures light scatter and fluorescence of single cells or particles in a stream.

For test [3], the target named is T3, CHO cells expressing Siglec-6 mutants (C46A, C172A, R to A mutants, F93A, L95A, G175M) (Homo sapiens, UniProt O43699, E88A).
T3 construct: These new CHO cell lines are the full-length versions of the Siglecs; expressed in transfected cells
T3 sequence (O43699 27-453 E88A): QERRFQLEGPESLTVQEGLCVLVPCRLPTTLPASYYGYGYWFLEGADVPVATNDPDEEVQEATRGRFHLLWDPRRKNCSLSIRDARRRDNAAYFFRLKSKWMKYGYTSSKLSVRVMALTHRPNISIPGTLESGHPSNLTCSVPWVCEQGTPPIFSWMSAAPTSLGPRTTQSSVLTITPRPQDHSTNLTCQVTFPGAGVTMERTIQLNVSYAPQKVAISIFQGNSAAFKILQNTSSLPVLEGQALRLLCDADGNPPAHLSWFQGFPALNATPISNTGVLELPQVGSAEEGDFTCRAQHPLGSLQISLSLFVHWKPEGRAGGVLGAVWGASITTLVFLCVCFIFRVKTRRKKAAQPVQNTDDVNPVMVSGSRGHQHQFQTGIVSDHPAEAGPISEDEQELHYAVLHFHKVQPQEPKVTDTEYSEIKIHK
The test can be described thus: Cell assay (liposome/EV binding, flow cytometry).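 For liposome binding, fluorescence signal (replicates): AF647 fluorescence intensity from 0.1 mol% AF647–PEG45–DSPE in liposomes.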 The format is cell-based. To be noted: sheet Figure S28b, 3% GM3-DAG liposomes, E88A. The protocol: as §1, §2, §3

In test [4] the target is T4, CHO cells expressing Siglec-6 mutants (C46A, C172A, R to A mutants, F93A, L95A, G175M) (Homo sapiens, UniProt O43699, G175M).
T4 construct: These new CHO cell lines are the full-length versions of the Siglecs; expressed in transfected cells
T4 sequence (O43699 27-453 G175M): as the sequence (O43699 27-453 E88A) above, with A62E, G149M counted along it
In words: Cell assay (liposome/EV binding, flow cytometry).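 For liposome binding, fluorescence signal (replicates): AF647 fluorescence intensity from 0.1 mol% AF647–PEG45–DSPE in liposomes.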 The format is cell-based. The conditions noted are these: sheet Figure S28b, 3% GM3-DAG liposomes, G175M. The protocol: as §1, §2, §3

For test [5], the target named is T5, CHO cells expressing Siglec-6 mutants (C46A, C172A, R to A mutants, F93A, L95A, G175M) (Homo sapiens, UniProt O43699, R100A).
T5 construct: These new CHO cell lines are the full-length versions of the Siglecs; expressed in transfected cells
T5 sequence (O43699 27-453 R100A): as the sequence (O43699 27-453 E88A) above, with A62E, R74A counted along it
In words: Cell assay (liposome/EV binding, flow cytometry). The format is cell-based. The conditions noted are these: sheet Figure S26a, 3% GM3-DAG liposomes, R100A. How it is done: as §1, §2, §3

For test [6], the target named is T6, CHO cells expressing Siglec-6 mutants (C46A, C172A, R to A mutants, F93A, L95A, G175M) (Homo sapiens, UniProt O43699, R112A).
T6 construct: These new CHO cell lines are the full-length versions of the Siglecs; expressed in transfected cells
T6 sequence (O43699 27-453 R112A): as the sequence (O43699 27-453 E88A) above, with A62E, R86A counted along it
The test can be described thus: Cell assay (liposome/EV binding, flow cytometry). The format is cell-based. To be noted: sheet Figure S26a, 3% GM3-DAG liposomes, R112A. The protocol: as §1, §2, §3

In test [7] the target is T7, CHO cells expressing Siglec-6 mutants (C46A, C172A, R to A mutants, F93A, L95A, G175M) (Homo sapiens, UniProt O43699, R113A).
T7 construct: These new CHO cell lines are the full-length versions of the Siglecs; expressed in transfected cells
T7 sequence (O43699 27-453 R113A): as the sequence (O43699 27-453 E88A) above, with A62E, R87A counted along it
The test can be described thus: Cell assay (liposome/EV binding, flow cytometry). It counts as cell-based. To be noted: sheet Figure S26a, 3% GM3-DAG liposomes, R113A. The protocol: as §1, §2, §3

Test [8] addresses T8, CHO cells expressing Siglec-6 mutants (C46A, C172A, R to A mutants, F93A, L95A, G175M) (Homo sapiens, UniProt O43699, R114A).
T8 construct: These new CHO cell lines are the full-length versions of the Siglecs; expressed in transfected cells
The test can be described thus: Cell assay (liposome/EV binding, flow cytometry). It counts as cell-based. The conditions noted are these: sheet Figure S26a, 3% GM3-DAG liposomes, R114A. The protocol: as §1, §2, §3

Test [9] has as its target T9, CHO cells expressing Siglec-6 mutants (C46A, C172A, R to A mutants, F93A, L95A, G175M) (Homo sapiens, UniProt O43699, R147A).
T9 construct: These new CHO cell lines are the full-length versions of the Siglecs; expressed in transfected cells
In words: Cell assay (liposome/EV binding, flow cytometry). It counts as cell-based. The conditions noted are these: sheet Figure S26a, 3% GM3-DAG liposomes, R147A. How it is done: as §1, §2, §3

Test [10] addresses T10, CHO cells expressing Siglec-6 mutants (C46A, C172A, R to A mutants, F93A, L95A, G175M) (Homo sapiens, UniProt O43699, R90A).
T10 construct: These new CHO cell lines are the full-length versions of the Siglecs; expressed in transfected cells
In words: Cell assay (liposome/EV binding, flow cytometry). The format is cell-based. The conditions noted are these: sheet Figure S26a, 3% GM3-DAG liposomes, R90A. How it is done:
as §1, §2, §3

The target in test [11] is T11, CHO cells expressing Siglec-6 mutants (C46A, C172A, R to A mutants, F93A, L95A, G175M) (Homo sapiens, UniProt O43699, R92A).
T11 construct: These new CHO cell lines are the full-length versions of the Siglecs; expressed in transfected cells
T11 sequence (O43699 27-453 R92A): as the sequence (O43699 27-453 E88A) above, with A62E, R66A counted along it
In words: Cell assay (liposome/EV binding, flow cytometry). To be noted: sheet Figure S26a, 3% GM3-DAG liposomes, R92A. It counts as cell-based. How it is done:
as §1, §2, §3

Test [12] deals with CHO cells expressing Siglec-6 mutants (C46A, C172A, R to A mutants, F93A, L95A, G175M). In words: Cell assay (liposome/EV binding, flow cytometry). It counts as cell-based, human. The conditions noted are these: cell assay. How it is done:
as §1, §2, §3

The target of test [13] is T12, Daudi cells transduced with WT Siglec-6 (Homo sapiens, UniProt O43699).
T12 construct: expressed in transfected cells; host or cells: Daudi cells (human B-cell line), lentiviral transduction
T12 sequence (O43699 27-453): as the sequence (O43699 27-453 E88A) above, with A62E counted along it
In words: Imaging flow cytometry internalization. It counts as cell-based. To be noted: 60 min at 4 or 37 °C. The protocol: Approximately 2 × 10^5 Daudi cells/well were plated into a 96-well U-bottom microplate and centrifuged at 300 × g for 5 min. The cell pellets were placed on ice, and 50 µL of 100 µM of liposome or 1:20 µL of EVs in RPMI growth medium (Gibco) containing 10% (V/V) fetal bovine serum (FBS; Gibco), 100 U/mL penicillin (Gibco), and 100 µg/mL streptomycin (Gibco) was added to their corresponding wells. Plates were incubated for 1 h at either 4 or 37 °C. After incubation, plates were centrifuged at 300 × g, 5 min, 4 °C then incubated with fluorescently conjugated anti-Siglec-6 antibody (Alexa Fluor 488; 1:250 dilution; R&D Systems) for 25 min at 4 °C. The plates were centrifuged once more at 300 × g, 4 °C, 5 min and the resulting cell pellet was resuspended in 40 µL of flow buffer (1% FBS, 500 µM EDTA Hank’s Balanced Salt Solution pH 7.4). 5000 events were collected for each sample using the ImageStream®X Mk II Flow cytometer (excitation lasers 488 nm and 642 nm, ×60 magnification). Data analysis was performed using IDEAS software, version 6.2.

Several values for one entry are separate records, joined by “and”; a condition that tells them apart may be missing. Identical values can stand only once.

T10 sequence (O43699 27-453 R90A): as the sequence (O43699 27-453 E88A) above, with A62E, R64A counted along it
T1 sequence (O43699 27-453 C172A): as the sequence (O43699 27-453 E88A) above, with A62E, C146A counted along it
T8 sequence (O43699 27-453 R114A): as the sequence (O43699 27-453 E88A) above, with A62E, R88A counted along it
T2 sequence (O43699 27-453 C46A): as the sequence (O43699 27-453 E88A) above, with C20A, A62E counted along it
T9 sequence (O43699 27-453 R147A): as the sequence (O43699 27-453 E88A) above, with A62E, R121A counted along it

With `CCCCCCCCCCCCCCCCOCC(COCCCCCCCCCCCCCCCC)OCc1cn(CCO[C@@H]2O[C@H](CO)[C@@H](O[C@@H]3O[C@H](CO)[C@H](O)[C@H](O[C@]4(C(=O)O)C[C@H](O)[C@@H](NC(C)=O)[C@H]([C@H](O)[C@H](O)CO)O4)[C@H]3O)[C@H](O)[C@H]2O)nn1` [GM3-DAG], the “liposome binding, fluorescence signal (replicates)” value in test [1] was 837 and 738 and 839 and 676; in test [2], 789 and 784 and 873 and 937; in [3] it was 2063 and 2173 and 2053; in test [4], 928 and 1026 and 962 and 868; in [5], 2485 and 2181 and 2573 and 2894; in [6], 4575 and 4566 and 3393 and 4882. Further, the “liposome binding, fluorescence signal (replicates)” value in test [7] is 4924 and 3926 and 3532 and 5592; in test [8], 3286 and 2523 and 2193 and 4407; in test [9] it was 10179 and 9364 and 9449 and 10723; in test [10], 6321 and 6067 and 6474 and 6517; in [11], 242 and 228 and 244 and 252.

For the compound `CCCCCCCCCCCCCCCCOCC(COCCCCCCCCCCCCCCCC)OCc1cn(CCO[C@@H]2O[C@H](CO)[C@@H](O[C@@H]3O[C@H](CO)[C@H](O)[C@H](O[C@]4(C(=O)O)C[C@H](O)[C@@H](NC(C)=O)[C@H]([C@H](O)[C@H](O)CO)O4)[C@H]3O)[C@H](O)[C@H]2O)nn1` [nGL 5], in [12], the “5 nGLL binding to C46A and C172A mutants of Siglec-6” value is listed as “did not recognize”; the “5 nGLL binding to F93A, L95A and G175M Siglec-6 mutants” value was “significantly decreased binding”; the “5 nGLL binding to R109A and R114A Siglec-6 mutants” value is given as “modest reduction in binding”. Also, the “5 nGLL binding to R92A and R100A Siglec-6 mutants” value in test [12] (both expressed at low levels) is given as “more pronounced reduction in binding”. In addition, the “internalization of 5 nGLLs by imaging flow cytometry” value in test [13] is “internalize 5 nGLLs at 37 °C but not 4 °C”.

For the origin of these results see paper PMC10122656, “Siglec-6 mediates the uptake of extracellular vesicles through a noncanonical glycolipid binding pocket” (Nature Communications, 2023).
